Tests used:
Assay type in all cases: in vivo
[1] = test system: velvetleaf (Abutilon theophrasti); assay: Test B postemergence; conditions: Rate 500 g/ha, scale 0 to 100, 0 is no effect, 100 is complete control, 13 to 15 days
How it was run: (§1)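 Ratings on a 0 to 100 visual scale (100 complete control) compare treated plants with controls 13 to 15 days after application. Treatments were pre- or postemergence sprays of compound in non-phytotoxic solvent with surfactant.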

[2] = test system: giant foxtail (Setaria faberii); assay: Test B postemergence; conditions: 13 to 15 days
How it was run: as §1

[3] = test system: Surinam grass (Brachiaria decumbens); assay: Test B postemergence; conditions: 13 to 15 days
How it was run: as §1

corn (Zea mays) [4] = assay: Test B postemergence; conditions: 13 to 15 days
How it was run: as §1

[5] = test system: morning glory (Ipomoea hederacea); assay: Test B postemergence; conditions: Rate 500 g/ha, scale 0 to 100, 0 is no effect, 100 is complete control, 13 to 15 days
How it was run: as §1

[6] = test system: cocklebur (Xanthium strumarium); assay: Test B postemergence; conditions: 13 to 15 days
How it was run: as §1

[7] = test system: crabgrass (Digitaria sanguinalis); assay: Test B postemergence; conditions: 13 to 15 days
How it was run: as §1

wild oat (Avena fatua) = assay: Test B postemergence; conditions: Rate 500 g/ha, scale 0 to 100, 0 is no effect, 100 is complete control, 13 to 15 days
How it was run: as §1

[8] = test system: wheat (Triticum aestivum); assay: Test B postemergence; conditions: Rate 500 g/ha, scale 0 to 100, 0 is no effect, 100 is complete control, 13 to 15 days
How it was run: as §1

[9] = test system: barnyardgrass (Echinochloa crus-galli); assay: Test B postemergence; conditions: 13 to 15 days
How it was run: as §1

[10] = test system: pigweed (Amaranthus retroflexus); assay: Test B postemergence; conditions: Rate 500 g/ha, scale 0 to 100, 0 is no effect, 100 is complete control, 13 to 15 days
How it was run: as §1

[11] = test system: velvetleaf (Abutilon theophrasti); assay: Test C preemergence; conditions: for Plant response rating (0 to 100), Velvetleaf: Rate 500 g/ha, visual evaluation after 12 to 14 days
How it was run: (§2)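 Visual injury scores of 0–100, with 100 meaning complete control, were given relative to controls after 12–14 days in the greenhouse. Treatments used a surfactant-containing non-phytotoxic solvent formulation, sprayed on seeded pots preemergence or on 1–4-leaf plants of 2–18 cm postemergence.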

[12] = test system: goosegrass (Eleusine indica); assay: Test C preemergence; conditions: for Plant response rating (0 to 100), Goosegrass: Rate 500 g/ha, visual evaluation after 12 to 14 days
How it was run: as §2

[13] = test system: common ragweed (Ambrosia elatior); assay: Test C preemergence; conditions: for Plant response rating (0 to 100), Ragweed, Common: Rate 500 g/ha, visual evaluation after 12 to 14 days
How it was run: as §2

corn (Zea mays) [14] = assay: Test C preemergence; conditions: for Plant response rating (0 to 100), Corn: Rate 500 g/ha, visual evaluation after 12 to 14 days
How it was run: as §2

[15] = test system: morningglory (Ipomoea hederacea); assay: Test C preemergence; conditions: for Plant response rating (0 to 100), Morningglory: Rate 500 g/ha, visual evaluation after 12 to 14 days
How it was run: as §2

[16] = test system: yellow nutsedge (Cyperus esculentus); assay: Test C preemergence; conditions: for Plant response rating (0 to 100), Nutsedge: Rate 500 g/ha, visual evaluation after 12 to 14 days
How it was run: as §2

Sunflower [17] = assay: Test C preemergence; conditions: Rate 125 g/ha; scale 0 to 100, 0 no effect, 100 complete control
[18] = test system: johnsongrass (Sorghum halepense); assay: Test C preemergence; conditions: for Plant response rating (0 to 100), Johnsongrass: Rate 500 g/ha, visual evaluation after 12 to 14 days
How it was run: as §2

Nightshade = assay: Test C preemergence
[19] = test system: lambsquarters (Chenopodium album); assay: Test C preemergence; conditions: for Plant response rating (0 to 100), Lambsquarters: Rate 500 g/ha, visual evaluation after 12 to 14 days
How it was run: as §2

Sunflower [20] = assay: Test C preemergence; conditions: Rate 500 g/ha, visual evaluation after 12 to 14 days
[21] = Rate 125 g/ha, scale 0 (no effect) to 100 (complete control)
[22] = Rate 500 g/ha, scale 0 to 100, 0 is no effect, 100 is complete control
[23] = Rate 125 g/ha, scale 0 to 100, 0 no effect, 100 complete control
[24] = preemergence, Rate 62 g/ha, scale 0 to 100
[25] = preemergence, Rate 250 g/ha, scale 0 to 100, 0 no effect, 100 complete control
[26] = Rate 250 g/ha, scale 0 to 100, 0 no effect, 100 complete control

CCCC(C)c1ccn(C2OCN(c3cccc(C(F)(F)F)c3)C2=O)n1 (stereo not drawn) [Compound 89]
Plant response rating, Velvetleaf [1]: 0
Plant response rating, Foxtail, Giant [2, 21]: 90
Plant response rating, Foxtail, Giant [2, 22]: 70
Plant response rating, Surinam grass [3, 21]: 0
Plant response rating, Surinam grass [3, 22]: 0
Plant response rating, Corn (corn (Zea mays) [4]; [21]): 30
Plant response rating, Corn (corn (Zea mays) [4]; [22]): 0
Plant response rating, Morningglory [5]: 40
Plant response rating, Cocklebur [6, 21]: 0
Plant response rating, Cocklebur [6, 22]: 30
Plant response rating, Crabgrass [7, 21]: 0
Plant response rating, Crabgrass [7, 22]: 60
Plant response rating, Wild Oat (wild oat (Avena fatua)): 0
Plant response rating, Wheat [8]: 0
Plant response rating, Barnyardgrass [9, 21]: 0
Plant response rating, Barnyardgrass [9, 22]: 80
Plant response rating, Pigweed [10]: 90
Plant response rating, Velvetleaf [11, 23]: 0
Plant response rating, Velvetleaf [11, 24]: 0
Plant response rating (0 to 100), Velvetleaf ([11]; preemergence): 10
Plant response rating, Velvetleaf [11, 25]: 0
Plant response rating, Goosegrass [12, 23]: 100
Plant response rating, Goosegrass [12, 24]: 95
Plant response rating (0 to 100), Goosegrass ([12]; preemergence): 100
Plant response rating, Goosegrass [12, 25]: 100
Plant response rating, Ragweed, Common [13, 23]: 0
Plant response rating, Ragweed, Common [13, 24]: 0
Plant response rating (0 to 100), Ragweed, Common ([13]; preemergence): 0
Plant response rating, Ragweed, Common [13, 25]: 0
Plant response rating, Corn (corn (Zea mays) [14]; [23]): 25
Plant response rating, Corn (corn (Zea mays) [14]; [24]): 10
Plant response rating (0 to 100), Corn (corn (Zea mays) [14]; preemergence): 30
Plant response rating, Corn (corn (Zea mays) [14]; [25]): 30
Plant response rating, Morningglory [15, 23]: 0
Plant response rating, Morningglory [15, 24]: 0
Plant response rating (0 to 100), Morningglory ([15]; preemergence): 0
Plant response rating, Morningglory [15, 25]: 0
Plant response rating, Nutsedge [16, 23]: 0
Plant response rating, Nutsedge [16, 24]: 0
Plant response rating (0 to 100), Nutsedge ([16]; preemergence): 0
Plant response rating, Nutsedge [16, 25]: 0
Plant response rating, Sunflower (Sunflower [17]): 0
Plant response rating, Johnsongrass [18, 23]: 70
Plant response rating, Johnsongrass [18, 24]: 50
Plant response rating (0 to 100), Johnsongrass ([18]; preemergence): 100
Plant response rating, Johnsongrass [18, 25]: 70
Plant response rating, Nightshade (Nightshade; Rate 62 g/ha, scale 0 to 100): 0
Plant response rating, Nightshade (Nightshade; [23]): 0
Plant response rating, Nightshade (Nightshade; [26]): 0
Plant response rating, Lambsquarters [19, 23]: 100
Plant response rating, Lambsquarters [19, 24]: 80
Plant response rating (0 to 100), Lambsquarters ([19]; preemergence): 100
Plant response rating, Lambsquarters [19, 25]: 100
Plant response rating (0 to 100), Sunflower (Sunflower [20]): 60

CCCC(C)c1ccn(C2OCN(c3cccc(OC(F)(F)F)c3)C2=O)n1 (stereo not drawn) [Compound 91]
Plant response rating, Velvetleaf [1]: 30
Plant response rating, Foxtail, Giant [2, 21]: 0
Plant response rating, Foxtail, Giant [2, 22]: 40
Plant response rating, Surinam grass [3, 21]: 10
Plant response rating, Surinam grass [3, 22]: 10
Plant response rating, Corn (corn (Zea mays) [4]; [21]): 0
Plant response rating, Corn (corn (Zea mays) [4]; [22]): 10
Plant response rating, Morningglory [5]: 80
Plant response rating, Cocklebur [6, 21]: 20
Plant response rating, Cocklebur [6, 22]: 80
Plant response rating, Crabgrass [7, 21]: 40
Plant response rating, Crabgrass [7, 22]: 90
Plant response rating, Wild Oat (wild oat (Avena fatua)): 0
Plant response rating, Wheat [8]: 0
Plant response rating, Barnyardgrass [9, 21]: 50
Plant response rating, Barnyardgrass [9, 22]: 90
Plant response rating, Pigweed [10]: 90
Plant response rating, Velvetleaf [11, 23]: 0
Plant response rating, Velvetleaf [11, 24]: 0
Plant response rating (0 to 100), Velvetleaf ([11]; preemergence): 0
Plant response rating, Velvetleaf [11, 25]: 0
Plant response rating, Goosegrass [12, 23]: 100
Plant response rating, Goosegrass [12, 24]: 90
Plant response rating (0 to 100), Goosegrass ([12]; preemergence): 100
Plant response rating, Goosegrass [12, 25]: 100
Plant response rating, Ragweed, Common [13, 23]: 0
Plant response rating, Ragweed, Common [13, 24]: 0
Plant response rating (0 to 100), Ragweed, Common ([13]; preemergence): 0
Plant response rating, Ragweed, Common [13, 25]: 0
Plant response rating, Corn (corn (Zea mays) [14]; [23]): 0
Plant response rating, Corn (corn (Zea mays) [14]; [24]): 0
Plant response rating (0 to 100), Corn (corn (Zea mays) [14]; preemergence): 10
Plant response rating, Corn (corn (Zea mays) [14]; [25]): 10
Plant response rating, Morningglory [15, 23]: 0
Plant response rating, Morningglory [15, 24]: 0
Plant response rating (0 to 100), Morningglory ([15]; preemergence): 0
Plant response rating, Morningglory [15, 25]: 0
Plant response rating, Nutsedge [16, 23]: 0
Plant response rating, Nutsedge [16, 24]: 0
Plant response rating (0 to 100), Nutsedge ([16]; preemergence): 0
Plant response rating, Nutsedge [16, 25]: 0
Plant response rating, Sunflower (Sunflower [17]): 0
Plant response rating, Johnsongrass [18, 23]: 80
Plant response rating, Johnsongrass [18, 24]: 20
Plant response rating (0 to 100), Johnsongrass ([18]; preemergence): 100
Plant response rating, Johnsongrass [18, 25]: 90
Plant response rating, Nightshade (Nightshade; Rate 62 g/ha, scale 0 to 100): 0
Plant response rating, Nightshade (Nightshade; [23]): 0
Plant response rating, Nightshade (Nightshade; [26]): 0
Plant response rating, Lambsquarters [19, 23]: 100
Plant response rating, Lambsquarters [19, 24]: 90
Plant response rating (0 to 100), Lambsquarters ([19]; preemergence): 100
Plant response rating, Lambsquarters [19, 25]: 100
Plant response rating (0 to 100), Sunflower (Sunflower [20]): 10
